Assay results as given in US10245330B2, “Compositions and methods for imaging” (The Regents of the University of California, priority 2010, dated 2019).

Experiment: Solubility in water
Format: physicochemical
Protocol: ^13C-BFA has suitable properties for polarization by DNP in that it is soluble forming >5 M solutions in water and readily forms a glass upon flash freezing. A 5 M solution of ^13C-BFA in water was prepared with 15 mM OXO63 radical and polarized by DNP by irradiating at 90940 MHz. A buildup time constant of 830 s provided ˜5% polarization (5450-fold enhancement factor) after 45 minutes. The spectroscopic detection of H2O2 of the probe was accomplished by rapidly dissolving polarized samples of ^13C-BFA in 100 mM phosphate buffer at pH 7.8 to a final concentration of 5 mM, followed by reaction with various concentrations of hydrogen peroxide.

O=C(c1ccccc1)[13C](=O)O [^13C-BFA, ^13C-benzoylformic acid]
solubility (solutions in water): > 5000 mM
